The record followed here is patent US12269831B2, “Modulators of cystic fibrosis transmembrane conductance regulator” (Vertex Pharmaceuticals Incorporated, priority 2020, dated 2025).

Molecules are shown by their SMILES.

The target in this experiment is T1, CFTR (F508del/MF-HBE cells) (Homo sapiens, UniProt P13569, DEL508-508).
T1 construct: human bronchial epithelial (HBE) cells derived from CF subjects heterozygous for F508del and a minimal function CFTR mutation (F508del/MF-HBE); endogenous in cells; host or cells: primary human bronchial epithelial (HBE) cells from CF subjects, genotype F508del/minimal function
T1 sequence (P13569 with tags, fused parts or gaps DEL508-508): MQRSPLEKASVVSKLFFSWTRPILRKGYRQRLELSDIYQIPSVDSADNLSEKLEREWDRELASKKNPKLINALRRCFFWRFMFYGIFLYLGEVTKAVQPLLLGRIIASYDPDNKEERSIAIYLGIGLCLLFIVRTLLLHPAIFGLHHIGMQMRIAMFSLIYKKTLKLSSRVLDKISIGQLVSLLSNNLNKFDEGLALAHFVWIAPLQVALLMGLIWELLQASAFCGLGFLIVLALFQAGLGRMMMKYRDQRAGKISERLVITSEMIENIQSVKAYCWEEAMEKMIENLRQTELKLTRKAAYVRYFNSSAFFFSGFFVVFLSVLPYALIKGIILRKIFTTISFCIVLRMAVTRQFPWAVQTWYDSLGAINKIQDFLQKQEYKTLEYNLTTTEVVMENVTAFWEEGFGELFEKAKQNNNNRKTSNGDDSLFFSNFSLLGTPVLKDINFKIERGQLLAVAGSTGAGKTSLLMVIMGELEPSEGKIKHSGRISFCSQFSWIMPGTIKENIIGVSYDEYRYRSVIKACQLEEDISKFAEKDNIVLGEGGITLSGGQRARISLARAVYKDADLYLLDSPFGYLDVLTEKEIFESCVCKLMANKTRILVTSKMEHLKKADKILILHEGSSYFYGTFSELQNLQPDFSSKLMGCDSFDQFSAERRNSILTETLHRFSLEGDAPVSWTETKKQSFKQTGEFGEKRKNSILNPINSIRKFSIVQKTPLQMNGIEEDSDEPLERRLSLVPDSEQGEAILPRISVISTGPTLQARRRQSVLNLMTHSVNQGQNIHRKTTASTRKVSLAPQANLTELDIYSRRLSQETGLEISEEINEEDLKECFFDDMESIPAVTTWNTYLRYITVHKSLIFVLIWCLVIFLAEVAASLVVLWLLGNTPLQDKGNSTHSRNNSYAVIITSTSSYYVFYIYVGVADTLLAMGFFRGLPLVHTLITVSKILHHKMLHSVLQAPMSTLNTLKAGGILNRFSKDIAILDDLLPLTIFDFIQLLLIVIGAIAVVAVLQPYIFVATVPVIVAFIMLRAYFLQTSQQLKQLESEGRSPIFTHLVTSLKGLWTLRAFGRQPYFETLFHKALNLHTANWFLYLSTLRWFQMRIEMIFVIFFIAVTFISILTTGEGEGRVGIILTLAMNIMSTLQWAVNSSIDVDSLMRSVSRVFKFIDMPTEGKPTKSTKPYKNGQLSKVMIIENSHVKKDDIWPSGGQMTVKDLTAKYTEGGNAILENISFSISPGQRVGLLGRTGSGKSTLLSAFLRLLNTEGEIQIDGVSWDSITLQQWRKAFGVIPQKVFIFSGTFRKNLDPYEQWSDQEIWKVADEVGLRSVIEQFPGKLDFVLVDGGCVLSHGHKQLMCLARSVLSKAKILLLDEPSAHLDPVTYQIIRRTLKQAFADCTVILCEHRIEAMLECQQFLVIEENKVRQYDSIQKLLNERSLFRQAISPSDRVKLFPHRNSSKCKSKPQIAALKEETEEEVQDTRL
Briefly: Ussing chamber assay of CFTR-mediated short-circuit currents (potentiator identification). The conditions noted are these: CFTR-mediated Isc, 18-24 h incubation at 37° C. with 10 μM (14S)-8-[3-(2-{dispiro[2.0.2.1]heptan-7-yl}ethoxy)-1H-pyrazol-1-yl]-... corrector, 20% human serum. It counts as cell-based. As to the method: Ussing Chamber Assay of CFTR-Mediated Short-Circuit Currents
Ussing chamber experiments were performed using human bronchial epithelial (HBE) cells derived from CF subjects heterozygous for F508del and a minimal function CFTR mutation (F508del/MF-HBE) and cultured as previously described (Neuberger T, Burton B, Clark H, Van Goor F Methods Mol Biol 2011:741:39-54). After four days the apical media was removed, and the cells were grown at an air liquid interface for >14 days prior to use.
To isolate the CFTR-mediated short-circuit (Isc) current, F508del/MF-HBE grown on Costar® Snapwell™ cell culture inserts were mounted in an Ussing chamber and the transepithelial ISC was measured under voltage-clamp recording conditions (Vhold=0 mV) at 37° C. The basolateral solution contained (in mM) 145 NaCl, 0.83 K2HPO4, 3.3 KH2PO4, 1.2 MgCl2, 1.2 CaCl2, 10 Glucose, 10 HEPES (pH adjusted to 7.4 with NaOH) and the apical solution contained (in mM) 145 NaGluconate, 1.2 MgCl2, 1.2 CaCl2, 10 glucose, 10 HEPES (pH adjusted to 7.4 with NaOH) and 30 μM amiloride to block the epithelial sodium channel. Forskolin (20 μM) was added to the apical surface to activate CFTR, followed by apical addition of a CFTR inhibitor cocktail consisting of BPO, GlyH-101 and CFTR inhibitor 172 (each at 20 μM final assay concentration) to specifically isolate CFTR currents. The CFTR-mediated Isc (μA/cm^2) for each condition was determined from the peak forskolin response to the steady-state current following inhibition.
Identification of Potentiator Compounds
The activity of the CFTR potentiator compounds on the CFTR-mediated Isc was determined in Ussing chamber studies as described above. The F508del/MF-HBE cell cultures were incubated with the potentiator compounds at a range of concentrations in combination with 10 μM (14S)-8-[3-(2-{dispiro[2.0.2.1]heptan-7-yl}ethoxy)-1H-pyrazol-1-yl]-12,12-dimethyl-2λ^6-thia-3,9,11,18,23-pentaazatetracyclo[17.3.1.111,14.05,10]tetracosa-1(22),5,7,9,19(23),20-hexaene-2,2,4-trione for 18-24 hours at 37° C. and in the presence of 20% human serum. The concentration of potentiator compounds and (14S)-8-[3-(2-{dispiro[2.0.2.1]heptan-7-yl}ethoxy)-1H-pyrazol-1-yl]-12,12-dimethyl-2λ^6-thia-3,9,11,18,23-pentaazatetracyclo[17.3.1.111,14.05,10]tetracosa-1(22),5,7,9,19(23),20-hexaene-2,2,4-trione used during the 18-24 hours incubations was kept constant throughout the Ussing chamber measurement of the CFTR-mediated Isc to ensure compounds were present throughout the entire experiment. The efficacy and potency of the putative F508del potentiators was compared to that of the known Vertex potentiator, ivacaftor (N-[2,4-bis(1,1-dimethylethyl)-5-hydroxyphenyl]-1,4-dihydro-4-oxoquinoline-3-carboxamide).
As a reminder, the EC50 is the midpoint of the concentration-response curve. In the case of `C[C@@H]1CCCCC(O)C(O)(C(F)(F)F)C2=NN=C(O2)c2nc(c(C(F)(F)F)cc2N)O1` (single isomer, unassigned) [Compound 62], the EC50 is below 500 nM.

On to `C[C@@H]1CC2CC2CC[C@](O)(C(F)(F)F)C2=NN=C(O2)c2nc(c(C(F)(F)F)cc2N)O1` (single isomer, unassigned) [Compound 63], for which the EC50 was below 500 nM. Under `C[C@@H]1CC2CC2CC[C@](O)(C(F)(F)F)C2=NN=C(O2)c2nc(c(C(F)(F)F)cc2N)O1` (single isomer, unassigned) [Compound 64] stands below 500 nM; under `Nc1cc(C(F)(F)F)c2nc1-c1nnc(o1)[C@@](O)(C(F)(F)F)CCCCCCO2` [Compound 5, (6R)-17-amino-6,15-bis(trifluoromethyl)-13,19-dioxa-3,4,18-triazatricyclo[12.3.1.12,5]nonadeca-1(18),2,4,14,16-pentaen-6-ol], below 500 nM. Under `Nc1cc(C(F)(F)F)c2nc1-c1nnc(o1)[C@](O)(C(F)(F)F)CCCCCCO2` [Compound 6, (6S)-17-amino-6,15-bis(trifluoromethyl)-13,19-dioxa-3,4,18-triazatricyclo[12.3.1.12,5]nonadeca-1(18),2,4,14,16-pentaen-6-ol] stands above 1000 nM; under `CC1CCCCCC(O)(C(F)(F)F)C2=NN=C(O2)c2nc(c(C(F)(F)F)cc2N)O1` (centres unmarked) [Compound 7, 17-amino-12-methyl-6,15-bis(trifluoromethyl)-13,19-dioxa-3,4,18-triazatricyclo[12.3.1.12,5]nonadeca-1(18),2,4,14,16-pentaen-6-ol], below 500 nM; under `CC1CCCCCC(O)(C(F)(F)F)C2=NN=C(O2)c2nc(c(C(F)(F)F)cc2N)O1` (centres unmarked) [Compound 8, 17-amino-12-methyl-6,15-bis(trifluoromethyl)-13,19-dioxa-3,4,18-triazatricyclo[12.3.1.12,5]nonadeca-1(18),2,4,14,16-pentaen-6-ol], below 500 nM.

For the compound `C[C@@H]1CCCCC[C@](O)(C(F)(F)F)C2=NN=C(O2)c2nc(c(C(F)(F)F)cc2N)O1` [Compound 11, (6R,12R)-17-amino-12-methyl-6,15-bis(trifluoromethyl)-13,19-dioxa-3,4,18-triazatricyclo[12.3.1.12,5]nonadeca-1(18),2,4,14,16-pentaen-6-ol], the EC50 is below 500 nM. With `C[C@@H]1CCCCC[C@@](O)(C(F)(F)F)C2=NN=C(O2)c2nc(c(C(F)(F)F)cc2N)O1` [Compound 12, (6S,12R)-17-Amino-12-methyl-6,15-bis(trifluoromethyl)-13,19-dioxa-3,4,18-triazatricyclo[12.3.1.12,5]nonadeca-1(18),2,4,14,16-pentaen-6-ol], the EC50 was below 500 nM. Under `C[C@H]1CCCCC[C@@](O)(C(F)(F)F)C2=NN=C(O2)c2nc(c(C(F)(F)F)cc2N)O1` [Compound 13, (6S,12S)-17-amino-12-methyl-6,15-bis(trifluoromethyl)-13,19-dioxa-3,4,18-triazatricyclo[12.3.1.12,5]nonadeca-1(18),2,4,14,16-pentaen-6-ol] stands below 500 nM. Turning to `C[C@H]1CCCCC[C@](O)(C(F)(F)F)C2=NN=C(O2)c2nc(c(C(F)(F)F)cc2N)O1` [Compound 14, (6R,12S)-17-amino-12-methyl-6,15-bis(trifluoromethyl)-13,19-dioxa-3,4,18-triazatricyclo[12.3.1.12,5]nonadeca-1(18),2,4,14,16-pentaen-6-ol], the EC50 is below 500 nM. For the compound `Nc1cc(C(F)(F)F)c2nc1-c1nnc(o1)C(O)(C(F)(F)F)CCCCc1ccccc1O2` (centres unmarked) [Compound 17, 21-amino-6,19-bis(trifluoromethyl)-17,23-dioxa-3,4,22-triazatetracyclo[16.3.1.12,5.011,16]tricosa-1(22),2,4,11(16),12,14,18,20-octaen-6-ol], the EC50 is below 500 nM.

On to `C[C@@H]1CCCc2ccc(F)c(c2)C(O)(C(F)(F)F)C2=NN=C(O2)c2nc(c(C(F)(F)F)cc2N)O1` (stereo partly drawn) [Compound 18, (15R)-20-amino-8-fluoro-15-methyl-6,18-bis(trifluoromethyl)-16,23-dioxa-3,4,21-triazatetracyclo[15.3.1.12,5.17,11]tricosa-1(21),2,4,7(22),8,10,17,19-octaen-6-ol], for which the EC50 is below 500 nM. For the compound `Nc1cc(C(F)(F)F)c2nc1-c1nnc(o1)[C@@](O)(C(F)(F)F)CCCCCC[S@+]2[O-]` [Compound 19, (6R,13S)-17-Amino-13-oxido-6,15-bis(trifluoromethyl)-19-oxa-13-thionia-3,4,18-triazatricyclo[12.3.1.12,5]nonadeca-1(18),2,4,14,16-pentaen-6-ol], the EC50 is below 500 nM. Under `Nc1cc(C(F)(F)F)c2nc1-c1nnc(o1)[C@@](O)(C(F)(F)F)CCCCCC[S@@+]2[O-]` [Compound 20, (6R,13R)-17-amino-13-oxido-6,15-bis(trifluoromethyl)-19-oxa-13-thionia-3,4,18-triazatricyclo[12.3.1.12,5]nonadeca-1(18),2,4,14,16-pentaen-6-ol] stands 500 to 1000 nM; under `Nc1cc(C(F)(F)F)c2nc1-c1nnc(o1)[C@@](O)(C(F)(F)F)CCCCCCS2` [Compound 21, (6R)-17-Amino-6,15-bis(trifluoromethyl)-19-oxa-13-thia-3,4,18-triazatricyclo[12.3.1.12,5]nonadeca-1(18),2,4,14,16-pentaen-6-ol], below 500 nM; under `Nc1cc(C(F)(F)F)c2nc1-c1nnc(o1)[C@@](O)(C(F)(F)F)CCCCCS2` [Compound 22, (6R)-16-amino-6,14-bis(trifluoromethyl)-18-oxa-12-thia-3,4,17-triazatricyclo[11.3.1.12,5]octadeca-1(17),2,4,13,15-pentaen-6-ol], below 500 nM.

For the compound `C[C@@H]1CC(=O)CCC[C@](O)(C(F)(F)F)C2=NN=C(O2)c2nc(c(C(F)(F)F)cc2N)O1` [Compound 25, (6R,12R)-17-amino-6-hydroxy-12-methyl-6,15-bis(trifluoromethyl)-13,19-dioxa-3,4,18-triazatricyclo[12.3.1.12,5]nonadeca-1(18),2,4,14,16-pentaen-10-one], the EC50 is above 1000 nM. Under `C[C@@H]1CCC(=O)CC[C@](O)(C(F)(F)F)C2=NN=C(O2)c2nc(c(C(F)(F)F)cc2N)O1` [Compound 26, (6R,12R)-17-amino-6-hydroxy-12-methyl-6,15-bis(trifluoromethyl)-13,19-dioxa-3,4,18-triazatricyclo[12.3.1.12,5]nonadeca-1(18),2,4,14,16-pentaen-9-one] stands below 500 nM; under `CC1CCC(O)(C(F)(F)F)C2=NN=C(O2)c2nc(c(C(F)(F)F)cc2N)Oc2cccc1c2` (centres unmarked) [Compound 29, 19-amino-9-methyl-6,17-bis(trifluoromethyl)-15,22-dioxa-3,4,20-triazatetracyclo[14.3.1.12,5.110,14]docosa-1(20),2,4,10(21),11,13,16,18-octaen-6-ol], below 500 nM. Under `Nc1cc(C(F)(F)F)c2nc1-c1nnc(o1)[C@@](O)(C(F)(F)F)CCCCC[C@H](CO)O2` [Compound 36, (6R,12R)-17-amino-12-(hydroxymethyl)-6,15-bis(trifluoromethyl)-13,19-dioxa-3,4,18-triazatricyclo[12.3.1.12,5]nonadeca-1(18),2,4,14,16-pentaen-6-ol] stands below 500 nM; under `Nc1cc(C(F)(F)F)c2nc1-c1nnc(o1)[C@@](O)(C(F)(F)F)CCCCC[C@@H](CO)O2` [Compound 37, (6R,12S)-17-amino-12-(hydroxymethyl)-6,15-bis(trifluoromethyl)-13,19-dioxa-3,4,18-triazatricyclo[12.3.1.12,5]nonadeca-1(18),2,4,14,16-pentaen-6-ol], below 500 nM. Under `[2H]C1CC[C@](O)(C(F)(F)F)C2=NN=C(O2)c2nc(c(C(F)(F)F)cc2N)O[C@H](C)CC1[2H]` (stereo partly drawn) [Compound 38, (6R,12R)-17-amino-9,10-dideuterio-12-methyl-6,15-bis(trifluoromethyl)-13,19-dioxa-3,4,18-triazatricyclo[12.3.1.12,5]nonadeca-1(18),2,4,14,16-pentaen-6-ol] stands below 500 nM.
